The values that follow come from patent US9023857B2, “Substituted 6-(2-aminobenzylamino)purine derivatives, their use as medicaments and preparations containing these compounds” (Univerzita Palackeho V Olomouci, priority 2009, dated 2015).

Where two headings read alike, the source gives them in different places.

Data set [1] has as its system human T-lymphoblastoid leukaemic cell line CEM.
Data set [2] deals with promyelocytic leukemia HL 60.
In data set [3] the test system is breast carcinoma MCF7.
Data set [4] concerns cervical carcinoma cells HELA.
Data set [5] has as its system human erythroleukaemia K562.
In data set [6] the test system is human malignant melanoma G 361.
Data set [7] relates to human osteogenic sarcoma HOS.
Data set [8] relates to normal human fibroblasts BJ.
A further data set concerns the target CDK9/cyclin T (Homo sapiens, UniProt P50750). Nature of the data set: CDK inhibition assay, CDK9/cyclin T.
The next data set concerns the target CDK1/cyclin B (Homo sapiens, UniProt P06493). Nature of the data set: CDK inhibition assay, CDK1/cyclin B.
The target in a further data set is CDK2/cyclin E (Homo sapiens, UniProt P24941). In words: CDK inhibition assay, CDK2/cyclin E.
In another data set the test system is VV. The data set is classed as cell-based, Vaccinia virus strain WR. The conditions noted are these: Vaccinia virus on HFFF.
A short description of data set [9]: In vitro cytotoxic activity (Calcein AM, 72 hours), BJ. Conditions: human, BJ normal fibroblasts.
Data set [10] relates to human T-lymphoblastoid leukaemic cell line CEM. In words: In vitro cytotoxic activity (Calcein AM, 72 hours), CEM. Conditions: read-out: Cytotoxicity IC50 CEM.
Data set [11] relates to human osteogenic sarcoma HOS. In words: In vitro cytotoxic activity (Calcein AM, 72 hours), HOS. The conditions noted are these: read-out: Cytotoxicity IC50 HOS.
In data set [12] the test system is breast carcinoma MCF7. In words: In vitro cytotoxic activity (Calcein AM, 72 hours), MCF7. Conditions: Homo sapiens, MCF7, 72 h, read-out: Cytotoxicity IC50 MCF7.
Data set [13] has as its system cervical carcinoma cells HELA. Nature of the data set: In vitro cytotoxic activity (Calcein AM, 72 hours), HELA. Conditions: Homo sapiens, read-out: Cytotoxicity IC50 HeLa.
For data set [14], the system named is human erythroleukaemia K562. In words: In vitro cytotoxic activity (Calcein AM, 72 hours), K562. The conditions noted are these: K562, 72 h, read-out: Cytotoxicity IC50 K-562.
The subject of data set [15] is promyelocytic leukemia HL 60. In words: In vitro cytotoxic activity (Calcein AM, 72 hours), HL 60. Conditions: Homo sapiens, HL-60, 72 h, read-out: Cytotoxicity IC50 HL60.
Data set [16] deals with human malignant melanoma G 361. In words: In vitro cytotoxic activity (Calcein AM, 72 hours), G 361. The conditions noted are these: G-361, 72 h, read-out: Cytotoxicity IC50 G361.
In data set [17] the test system is p53-responsive reporter pRGCΔfoslacZ in human melanoma cell line Arn8. In words: p53-dependent transcriptional activity, β-galactosidase reporter in Arn8 cells. The conditions noted are these: concentration inducing maximum of β-galactosidase activity (p53-responsive reporter).
[18] abbreviates: read-out: IC50 CDK9, CDK9/cyclin T, 15 μM ATP, histone substrate.
[19] abbreviates: read-out: IC50 CDK1, CDK1/cyclin B, 15 μM ATP, histone substrate.
The mark [20] stands for this setting: read-out: IC50 CDK2, CDK2/cyclin E, 15 μM ATP, histone substrate.

Chain of CDK9/cyclin T (P50750 whole entry, species assumed): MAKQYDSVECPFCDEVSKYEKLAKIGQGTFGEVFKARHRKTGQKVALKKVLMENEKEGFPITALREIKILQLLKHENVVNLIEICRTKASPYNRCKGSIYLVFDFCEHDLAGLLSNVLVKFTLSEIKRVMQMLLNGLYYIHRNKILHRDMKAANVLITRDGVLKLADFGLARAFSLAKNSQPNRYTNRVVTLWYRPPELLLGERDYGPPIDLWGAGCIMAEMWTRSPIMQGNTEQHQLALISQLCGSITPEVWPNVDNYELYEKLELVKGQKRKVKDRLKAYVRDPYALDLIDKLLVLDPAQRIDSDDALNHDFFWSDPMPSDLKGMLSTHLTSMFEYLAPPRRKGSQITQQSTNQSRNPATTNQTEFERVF
Chain of CDK9/cyclin T (O60563 whole entry partner, species assumed): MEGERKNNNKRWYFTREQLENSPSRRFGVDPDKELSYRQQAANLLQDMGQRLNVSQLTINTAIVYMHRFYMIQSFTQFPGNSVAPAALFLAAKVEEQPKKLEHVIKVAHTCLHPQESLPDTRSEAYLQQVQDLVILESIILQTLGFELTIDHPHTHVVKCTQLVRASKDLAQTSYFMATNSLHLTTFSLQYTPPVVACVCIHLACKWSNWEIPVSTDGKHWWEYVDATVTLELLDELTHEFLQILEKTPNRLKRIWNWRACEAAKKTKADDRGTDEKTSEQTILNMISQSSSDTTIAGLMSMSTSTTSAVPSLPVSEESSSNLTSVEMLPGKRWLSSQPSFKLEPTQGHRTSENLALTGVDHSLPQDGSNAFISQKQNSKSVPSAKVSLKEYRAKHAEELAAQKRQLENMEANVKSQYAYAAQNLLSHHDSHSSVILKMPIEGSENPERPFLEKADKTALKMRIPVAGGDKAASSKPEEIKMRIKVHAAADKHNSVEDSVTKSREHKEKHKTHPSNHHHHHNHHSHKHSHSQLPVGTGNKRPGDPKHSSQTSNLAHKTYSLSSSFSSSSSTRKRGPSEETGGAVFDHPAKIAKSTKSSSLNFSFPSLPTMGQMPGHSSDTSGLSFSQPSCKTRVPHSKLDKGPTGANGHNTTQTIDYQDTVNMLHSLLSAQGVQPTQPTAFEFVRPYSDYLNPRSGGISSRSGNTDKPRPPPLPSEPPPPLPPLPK
Chain of CDK1/cyclin B (P06493 whole entry, species assumed): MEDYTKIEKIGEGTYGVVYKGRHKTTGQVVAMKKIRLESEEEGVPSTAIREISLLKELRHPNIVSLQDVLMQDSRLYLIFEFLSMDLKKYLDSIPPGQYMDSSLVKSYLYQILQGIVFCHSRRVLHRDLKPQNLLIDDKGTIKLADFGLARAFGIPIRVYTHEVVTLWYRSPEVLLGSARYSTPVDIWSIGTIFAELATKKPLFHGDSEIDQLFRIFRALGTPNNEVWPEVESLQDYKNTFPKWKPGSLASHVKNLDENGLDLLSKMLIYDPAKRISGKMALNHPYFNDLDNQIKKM
Chain of CDK1/cyclin B (P14635 whole entry partner, species assumed): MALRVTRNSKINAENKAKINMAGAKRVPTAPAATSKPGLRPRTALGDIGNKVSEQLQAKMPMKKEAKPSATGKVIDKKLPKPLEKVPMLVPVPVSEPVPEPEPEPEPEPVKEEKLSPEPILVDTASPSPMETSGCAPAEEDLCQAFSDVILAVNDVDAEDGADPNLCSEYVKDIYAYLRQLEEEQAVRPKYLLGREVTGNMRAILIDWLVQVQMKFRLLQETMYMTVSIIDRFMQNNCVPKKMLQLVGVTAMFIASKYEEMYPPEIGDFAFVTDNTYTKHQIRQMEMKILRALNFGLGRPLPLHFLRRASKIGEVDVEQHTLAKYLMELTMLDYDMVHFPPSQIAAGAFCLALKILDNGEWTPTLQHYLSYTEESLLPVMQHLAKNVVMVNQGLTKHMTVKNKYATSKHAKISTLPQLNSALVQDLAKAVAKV

`CC(C)C(CO)Nc1nc(NCc2ccccc2)c2ncn(C(C)C)c2n1` (stereo not shown) [Compound A2161]: the IC50 was determined as 4.3 µM in data set [1]; 18 µM in [2]; 5.9 µM in the data set with breast carcinoma MCF7 [3]; 6.5 µM in data set [4]; 15.4 µM in data set [5]; 11.5 µM in data set [6]. Also, the IC50 was 22 µM in [7], above 167 µM in [8] and 0.5 µM on CDK9/cyclin T (setting [18]).
As for `Cn1cnc2c(NCc3ccccc3)nc(NC3CCC(N)CC3)nc21` (stereo not shown) [Compound A1141], the IC50 was 43 µM in data set [1]; 75 µM in data set [2]; 55 µM in the data set on breast carcinoma MCF7 [3]; 48 µM in [4]; 91 µM in [5]; 74 µM in data set [6]. In addition, the IC50 in [7] is 86 µM; in data set [8] it was above 167 µM; at CDK1/cyclin B (setting [19]), 3.1 µM; on CDK2/cyclin E (setting [20]), 3.4 µM; on CDK9/cyclin T (setting [18]) it was 3.3 µM.
Take `CC(O)CNc1nc(NCc2ccccc2)c2ncn(C(C)C)c2n1` (stereo not shown) [Compound A216]: the IC50 in data set [1] stood at 27 µM; in [2] it was 59 µM; in the data set on breast carcinoma MCF7 [3], 30.4 µM; in data set [4], 36 µM; in data set [5], 80 µM; in [6], 44 µM. For the same compound, the IC50 in [7] was 58 µM; in [8] it was above 167 µM; at CDK2/cyclin E (setting [20]), 1.5 µM; on CDK9/cyclin T (setting [18]) it was 1.3 µM.
As to `O=c1[nH]c(=O)n([C@H]2C[C@H](O)[C@@H](CO)O2)cc1I` [Iododeoxyuridine, 1-(2-Deoxy-β-D-ribofuranosyl)-5-iodouracil], in the data set on VV, the “inhibition of virus replication (in words)” value is listed as “inhibited equally well”.
Take `CC(C)n1cnc2c(NCc3ccccc3N)nc(N[C@H]3CC[C@H](O)CC3)nc21` [Compound 103]: the IC50 against CDK1/cyclin B was 0.2 µM; on CDK2/cyclin E, 0.15 µM; on CDK9/cyclin T it was 0.003 µM; in data set [10], 14 µM; in data set [11] it was 63 µM; with breast carcinoma MCF7 [12] it was 10.1 µM. The IC50 is 18 µM in data set [13], 29.8 µM in [14], 36 µM in data set [15] and 33 µM in [16]. Also, in data set [9], the IC50 at 72 h is above 167 µM. Further, the “Max. β-Gal. Activtity Conc.” value in data set [17] amounted to 14 µM.
As for `CCC(CO)Nc1nc(NCc2ccccc2N)c2ncn(CC)c2n1` (stereo not shown) [Compound 62], the IC50 at CDK1/cyclin B was 0.07 µM; against CDK2/cyclin E, 0.01 µM; at CDK9/cyclin T, 0.0007 µM; in data set [10], 2.4 µM; in data set [11], 3.2 µM; with breast carcinoma MCF7 [12] it was 1.8 µM. The half-maximal inhibitory concentration (IC50) is 1.6 µM in [13], 5.4 µM in data set [14], 6.7 µM in data set [15] and 2.5 µM in data set [16]. Besides, the IC50 at 72 h in data set [9] is above 167 µM. Also, in data set [17], the “Max. β-Gal. Activtity Conc.” value was found to be 7 µM.
As for `Nc1ccccc1CNc1nc(NC2CCC(N)CC2)nc2c1ncn2Cc1ccccc1` (stereo not shown) [Compound 231], the IC50 against CDK1/cyclin B is 0.8 µM; at CDK2/cyclin E it was 0.5 µM; on CDK9/cyclin T, 0.05 µM; in data set [10], 12 µM; in data set [11], 23 µM; in the data set with breast carcinoma MCF7 [12] it was 15 µM. Besides, the IC50 in [13] is 16 µM; in data set [14] it was 37 µM; in data set [15], 32 µM; in data set [16] it was 15 µM. Also, the IC50 at 72 h in data set [9] is above 167 µM. Also, the “Max. β-Gal. Activtity Conc.” value in [17] stood at 18 µM.
Regarding `CC(O)CNc1nc(NCc2ccccc2N)c2ncn(C(C)C)c2n1` (stereo not shown) [Compound 104, 1-({6-[(2-aminobenzyl)amino]-9-isopropyl-9H-purin-2-yl}amino)propan-2-ol], the IC50 against CDK1/cyclin B was 0.09 µM; against CDK2/cyclin E, 0.03 µM; against CDK9/cyclin T it was 0.006 µM; in data set [10], 17 µM; in [11], 31 µM; in the data set on breast carcinoma MCF7 [12], 15.4 µM. The IC50 in [13] is 15 µM; in data set [14], 26 µM; in data set [15], 29 µM; in data set [16], 19 µM. The IC50 at 72 h in data set [9] was above 167 µM. In [17], the “Max. β-Gal. Activtity Conc.” value stood at 12 µM.
As to `CC(C)n1cnc2c(NCc3cc(N)ccc3N)nc(NC3CCC(O)CC3)nc21` (stereo not shown) [Compound 161], the IC50 stood at 9 µM in [1]; 26 µM in data set [2]; 7 µM with breast carcinoma MCF7 [3]; 12 µM in data set [4]; 18 µM in [5]; 14 µM in data set [6]. Further, the IC50 is 26 µM in data set [7]; above 167 µM in data set [8]; 0.9 µM at CDK1/cyclin B (setting [19]); 0.6 µM at CDK2/cyclin E (setting [20]); 0.08 µM at CDK9/cyclin T (setting [18]). For the same compound, in data set [17], the “Max. β-Gal. Activtity Conc.” value stood at 20 µM.
For the compound `CCCn1cnc2c(NCc3ccccc3N)nc(NC(CC)CO)nc21` (stereo not shown) [Compound 187], the IC50 was 0.2 µM against CDK1/cyclin B; 0.1 µM against CDK2/cyclin E; 0.0007 µM against CDK9/cyclin T; 7.6 µM in data set [10]; 12 µM in data set [11]; 4.3 µM in the data set on breast carcinoma MCF7 [12]. In addition, the IC50 was 4.5 µM in data set [13], 16 µM in data set [14], 8.3 µM in data set [15] and 9 µM in data set [16]. Further, in [9], the IC50 at 72 h is above 167 µM. The “Max. β-Gal. Activtity Conc.” value in data set [17] came to 3 µM.
As for `CC(C)C(CO)Nc1nc(NCc2ccccc2N)c2ncn(C)c2n1` (stereo not shown) [Compound 7], the IC50 at CDK1/cyclin B is 0.04 µM; against CDK2/cyclin E it was 0.01 µM; against CDK9/cyclin T, 0.001 µM; in data set [10], 0.9 µM; in [11], 0.8 µM; with breast carcinoma MCF7 [12], 1.5 µM. Moreover, the IC50 is 1 µM in data set [13], 5 µM in data set [14], 2.4 µM in [15] and 1.2 µM in data set [16]. Moreover, the IC50 at 72 h in data set [9] was above 167 µM. Besides, the “Max. β-Gal. Activtity Conc.” value in [17] stood at 25 µM.
With `Cc1cccc(CNc2nc(NC3CCC(N)CC3)nc3c2ncn3C(C)C)c1N` (stereo not shown) [Compound 138], the IC50 at CDK1/cyclin B is 0.1 µM; against CDK2/cyclin E, 0.07 µM; at CDK9/cyclin T, 0.0006 µM; in data set [10], 8.7 µM; in data set [11], 25 µM; with breast carcinoma MCF7 [12] it was 3.8 µM. Also, the IC50 was 9.2 µM in [13], 9.5 µM in [14], 23 µM in data set [15] and 13 µM in data set [16]. In addition, the IC50 at 72 h in data set [9] was above 167 µM. The “Max. β-Gal. Activtity Conc.” value in [17] was 2 µM.
Consider `CC(C)n1cnc2c(NCc3ccccc3N)nc(NC3CCCCC3N)nc21` (stereo not shown) [Compound 101], for which the IC50 in data set [1] is 7 µM; in data set [2], 24 µM; with breast carcinoma MCF7 [3], 15.3 µM; in data set [4] it was 15 µM; in data set [5], 27 µM; in data set [6], 14 µM. Also, the IC50 is 25 µM in data set [7]; above 167 µM in [8]; 0.6 µM on CDK1/cyclin B (setting [19]); 0.4 µM at CDK2/cyclin E (setting [20]); 0.02 µM on CDK9/cyclin T (setting [18]). For the same compound, the “Max. β-Gal. Activtity Conc.” value in data set [17] was 22 µM.
For the compound `CCn1cnc2c(NCc3ccccc3N)nc(NC(CO)C(C)C)nc21` (stereo not shown) [Compound 64], the IC50 against CDK1/cyclin B is 0.03 µM; on CDK2/cyclin E, 0.01 µM; on CDK9/cyclin T, 0.0009 µM; in [10] it was 0.7 µM; in [11], 0.9 µM; in the data set with breast carcinoma MCF7 [12], 1.3 µM. The IC50 in [13] is 1.2 µM; in data set [14], 4.5 µM; in data set [15], 2.1 µM; in data set [16], 1 µM. Also, the IC50 at 72 h in data set [9] was above 167 µM. Also, the “Max. β-Gal. Activtity Conc.” value in [17] was 6 µM.
Take `CCC(CO)Nc1nc(NCc2cc(Cl)ccc2N)c2ncn(Cc3ccccc3)c2n1` (stereo not shown) [Compound 247]: the IC50 is 0.8 µM at CDK1/cyclin B; 0.6 µM at CDK2/cyclin E; 0.07 µM at CDK9/cyclin T; 15 µM in [10]; 22 µM in data set [11]; 14 µM in the data set on breast carcinoma MCF7 [12]. Besides, the IC50 in [13] is 19 µM; in data set [14], 41 µM; in [15], 34 µM; in [16], 21 µM. The IC50 at 72 h in data set [9] is above 167 µM. In addition, the “Max. β-Gal. Activtity Conc.” value in data set [17] was determined as 20 µM.

The term IC50 denotes the concentration that gives 50% inhibition.
